Test results taken from patent US20090005435A1, “Novel Compounds, Pharmaceutical Compositions Containing Same, and Methods of Use for Same” (priority 2004, published 2009).

Columns and labels:
[1] = target: T1, CPT-1 (Homo sapiens, UniProt P50416); assay: Carnitine palmitoyltransferase-1 (CPT-1) assay in permeabilized MCF-7 cells; assay type: cell-based; conditions: at 20 ug/ml
T1 construct: This assay uses permeabilized cells to measure the transfer of [methyl-^14C]L-carnitine; endogenous in cells; host or cells: MCF-7 cells, digitonin-permeabilized
T1 sequence (P50416 1-773): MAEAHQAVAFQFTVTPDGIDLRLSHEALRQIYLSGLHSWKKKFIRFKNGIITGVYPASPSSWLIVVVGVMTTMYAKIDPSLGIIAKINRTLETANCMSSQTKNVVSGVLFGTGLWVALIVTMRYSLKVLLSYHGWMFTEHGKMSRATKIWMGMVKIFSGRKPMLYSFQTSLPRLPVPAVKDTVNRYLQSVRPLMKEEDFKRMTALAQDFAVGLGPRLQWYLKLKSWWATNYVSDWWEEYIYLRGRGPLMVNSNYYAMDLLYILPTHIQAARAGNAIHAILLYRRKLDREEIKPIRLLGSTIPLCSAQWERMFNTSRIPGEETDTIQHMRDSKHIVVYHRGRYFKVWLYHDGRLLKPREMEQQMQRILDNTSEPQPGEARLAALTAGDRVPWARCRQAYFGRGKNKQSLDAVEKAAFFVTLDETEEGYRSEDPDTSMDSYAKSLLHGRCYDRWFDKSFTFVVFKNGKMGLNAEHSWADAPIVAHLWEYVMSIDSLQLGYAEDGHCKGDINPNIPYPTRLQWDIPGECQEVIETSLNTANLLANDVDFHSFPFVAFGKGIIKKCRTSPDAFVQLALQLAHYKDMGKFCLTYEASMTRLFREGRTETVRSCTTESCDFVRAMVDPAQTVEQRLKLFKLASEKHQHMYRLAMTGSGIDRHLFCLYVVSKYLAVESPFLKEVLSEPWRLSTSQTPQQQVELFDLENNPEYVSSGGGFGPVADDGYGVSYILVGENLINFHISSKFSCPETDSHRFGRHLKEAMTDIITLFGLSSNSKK
Description: Carnitine Palmitoyltransferase-1 (CPT-1) Assay
CPT-1 catalyzes the ATP dependent transfer of long-chain fatty acids from acyl-CoA to acyl-carnitine that is inhibited by malonyl-CoA. As CPT-1 requires the mitochondrial membrane for activity, enzyme activity is measured in permeabilized cells or mitochondria. This assay uses permeabilized cells to measure the transfer of [methyl-^14C]L-carnitine to the organically soluble acyl-carnitine deriviative.
MCF-7 cells are plated in DMEM with 10% fetal bovine serum at 10^6 cells in 24-well plates in triplicate for controls, drugs, and malonyl-CoA. Two hours before commencing the assay, drugs are added at the indicated concentrations made from stock solutions at 10 mg/ml in DMSO, vehicle controls consist of DMSO without drug. Since malonyl-CoA cannot enter intact cells, it is only added in the assay buffer to cells that have not been preincubated with drugs. Following overnight incubation at 37° C., the medium is removed and replaced with 700 μl of assay buffer consisting of: 50 mM imidazole, 70 mM KCl, 80 mM sucrose, 1 mM EGTA, 2 mM MgCl2, 1 mM DTT, 1 mM KCN, 1 mM ATP, 0.1% fatty acid free bovine serum albumin, 70 μM palmitoyl-CoA, 0.25 μCi [methyl-^14C]L-carnitine, 40 μg digitonin with drug, DMSO vehicle control, or 20 μM malonyl-CoA. […] The butanol phase is counted by liquid scintillation and represents the acylcarnitine derivative.

[2] = test system: Pseudomonas aeruginosa (ATCC #27853); assay: Broth microdilution MIC, P. aeruginosa; assay type: cell-based
Description: A broth microdilution assay is used to assess the antimicrobial activity of the compounds. Compounds are tested at twofold serial dilutions, and the concentration that inhibits visible growth (OD600 at 10% of control) is defined as the MIC. Microorganisms tested include Staphylococcus aureus (ATCC #29213), Enterococcus faecalis (ATCC #29212), Pseudomonas aeruginosa (ATCC #27853), and Escherichia coli (ATCC #25922). The assay is performed in two growth media, Mueller Hinton Broth and Trypticase Soy Broth.
A blood (Tsoy/5% sheep blood) agar plate is inoculated from frozen stocks maintained in T soy broth containing 10% glycerol and incubated overnight at 37° C. Colonies are suspended in sterile broth so that the turbidity matches the turbidity of a 0.5 McFarland standard. The inoculum is diluted 1:10 in sterile broth (Mueller Hinton or Trypticase soy) and 195 ul is dispensed per well of a 96-well plate. […]
After 24 hours of incubation at 37° C., plates are read at OD600 on a Molecular Devices SpectraMax Plus Spectrophotometer. Average OD600 values are computed using SOFTmax Pro Software (Molecular Devices) and MIC values are determined by linear regression analysis using Prism version 3.02 (Graph Pad Software, San Diego). […]

C=CCC1(CC=C)C(=O)SC(C)(CCCCCCCC)C1=O (racemic) [Compound 4, 3,3-Diallyl-5-methyl-5-octyl-thiophene-2,4-dione]
CPT I Stim [1]: 125% of control
PSAE/MH (MIC) ([2]; Mueller Hinton Broth): Neg
PSAE/Tsoy ([2]; Trypticase Soy Broth): Neg
